Experimental data taken from ChEMBL document CHEMBL4680122, “Design, synthesis and biological evaluation of new Axl kinase inhibitors containing 1,3,4-oxadiazole acetamide moiety as novel linker” (Eur J Med Chem, 2020).

Legend:
HT-29 = assay: Antiproliferative activity against human HT-29 cells measured after 72 hrs by MTT assay; conditions: HT-29, 72 h
A549 = assay: cells; conditions: Homo sapiens, A549, 72 h
Description: Antiproliferative activity against human A549 cells measured after 72 hrs by MTT assay

PC-3 = assay: cells; conditions: Homo sapiens, PC-3, 72 h
Description: Antiproliferative activity against human PC-3 cells measured after 72 hrs by MTT assay

MCF7 = assay: Antiproliferative activity against human MCF7 cells measured after 72 hrs by MTT assay; type: functional, cell-based; conditions: MCF7, 72 h

Structure (SMILES) | IC50 (HT-29) [µM] | IC50 (A549) [µM] | IC50 (PC-3) [µM] | IC50 (MCF7) [µM]
COc1cc2nccc(Oc3ccc(NC(=O)c4nnc(-c5ccc(F)cc5)o4)cc3)c2cc1OC | 52.3 | 5.14 | > 100 | –
COc1cc2c(Oc3ccc(NC(=O)C4(c5nnc(-c6ccc(F)cc6)o5)CC4)cc3F)ccnc2cc1OCCCN1CCN(C)CC1 | 1.05 | 0.143 | 1.67 | 2.61
CCC(C(=O)Nc1ccc(Oc2ccnc3cc(OCCCN4CCN(C)CC4)c(OC)cc23)c(F)c1)c1nnc(-c2ccc(F)cc2)o1 (stereo not drawn) | 1.54 | 0.038 | 0.97 | 2.22
COc1cc2c(Oc3ccc(NC(=O)Cc4ncc(-c5ccc(F)cc5)o4)cc3F)ccnc2cc1OCCCN1CCCCC1 | 1.04 | 1.04 | 0.53 | –
COc1cc2c(Oc3ccc(NC(=O)Cc4nnc(-c5ccc(Cl)cc5)o4)cc3F)ccnc2cc1OCCCN1CCC(C)CC1 | 2.46 | 0.63 | 0.36 | –
COc1cc2c(Oc3ccc(NC(=O)Cc4ncc(-c5ccc(F)cc5)o4)cc3F)ccnc2cc1OCCCN1CCN(C)CC1 | 2.52 | 0.254 | 0.57 | –
COc1cc2c(Oc3ccc(NC(=O)C(C)(C)c4nnc(-c5ccc(F)cc5)o4)cc3F)ccnc2cc1OCCCN1CCCCC1 | 0.871 | 0.215 | 1.76 | 0.47
COc1cc2c(Oc3ccc(NC(=O)Cc4nnc(-c5ccc(F)cc5)o4)cc3F)ccnc2cc1OCCCN1CCOCC1 | 4.3 | 0.103 | 0.68 | –
COc1cc2c(Oc3ccc(NC(=O)Cc4nnc(-c5ccc(Br)cc5)o4)cc3F)ccnc2cc1OCCCN1CCC(C)CC1 | 0.583 | 0.102 | 0.68 | –
COc1cc2c(Oc3ccc(NC(=O)Cc4nnc(-c5ccc(F)cc5)o4)cc3F)ccnc2cc1OCCCN1CCCCC1 | 0.813 | 0.813 | 0.4 | –
COc1cc2c(Oc3ccc(NC(=O)C(C)(C)c4nnc(-c5ccc(F)cc5)o4)cc3F)ccnc2cc1OCCCN1CCOCC1 | 2.48 | 0.275 | 1.79 | 1.6
COc1cc2c(Oc3ccc(NC(=O)c4ncc(-c5ccc(F)cc5)o4)cc3)ccnc2cc1OCCCN1CCC(C)CC1 | 1.89 | 0.24 | 0.72 | –
COc1cc2c(Oc3ccc(NC(=O)Cc4nnc(-c5ccc(F)cc5)o4)cc3F)ccnc2cc1OCCCN1CCN(C)CC1 | 3.48 | 0.071 | 0.41 | –
COc1cc2nccc(Oc3ccc(NC(=O)c4cc(-c5ccc(F)cc5)on4)cc3)c2cc1OC | > 100 | 40.4 | 29.4 | –
CCC(C(=O)Nc1ccc(Oc2ccnc3cc(OCCCN4CCOCC4)c(OC)cc23)c(F)c1)c1nnc(-c2ccc(F)cc2)o1 (stereo not drawn) | 2.02 | 0.049 | 2.53 | 2.69
COc1cc2c(Oc3ccc(NC(=O)c4nnc(-c5ccc(F)cc5)o4)cc3)ccnc2cc1OCCCN1CCC(C)CC1 | 7.89 | 2.73 | 3.81 | –
COc1cc2nccc(Oc3ccc(NC(=O)C4(C(=O)Nc5ccc(F)cc5)CC4)cc3)c2cc1OC [CABOZANTINIB] | 4.56 | 3.75 | 8.25 | –
CCC(C(=O)Nc1ccc(Oc2ccnc3cc(OCCCN4CCC(C)CC4)c(OC)cc23)c(F)c1)c1nnc(-c2ccc(F)cc2)o1 (stereo not drawn) | 0.554 | 0.119 | 0.4 | 0.46
COc1cc2c(Oc3ccc(NC(=O)C4(c5nnc(-c6ccc(F)cc6)o5)CC4)cc3F)ccnc2cc1OCCCN1CCOCC1 | 9.33 | 1.66 | 13 | > 100

Structure (SMILES) | IC50 (HT-29) [µM] | IC50 (A549) [µM] | IC50 (PC-3) [µM] | IC50 (MCF7) [µM]
COc1cc2c(Oc3ccc(NC(=O)C4(c5nnc(-c6ccc(F)cc6)o5)CC4)cc3F)ccnc2cc1OCCCN1CCCC1 | 0.779 | 0.15 | 2.34 | 0.31
COc1cc2c(Oc3ccc(NC(=O)Cc4ncc(-c5ccc(F)cc5)o4)cc3F)ccnc2cc1OCCCN1CCOCC1 | 13.7 | 0.596 | 2.41 | –
COc1cc2c(Oc3ccc(NC(=O)C(C)(C)c4nnc(-c5ccc(F)cc5)o4)cc3F)ccnc2cc1OCCCN1CCN(C)CC1 | 1.08 | 0.597 | 1.9 | 2.48
COc1cc2c(Oc3ccc(NC(=O)Cc4ncc(-c5ccc(F)cc5)o4)cc3F)ccnc2cc1OCCCN1CCCC1 | 4.17 | 0.178 | 0.34 | –
COc1cc2c(Oc3ccc(NC(=O)c4nc(-c5ccc(F)cc5)no4)cc3)ccnc2cc1OCCCN1CCC(C)CC1 | 6.38 | 0.87 | 1.04 | –
COc1cc2c(Oc3ccc(NC(=O)C(C)(C)c4nnc(-c5ccc(F)cc5)o4)cc3F)ccnc2cc1OCCCN1CCCC1 | 1.03 | 0.263 | 1.05 | –
COc1cc2c(Oc3ccc(NC(=O)C(C)c4nnc(-c5ccc(F)cc5)o4)cc3F)ccnc2cc1OCCCN1CCN(C)CC1 (stereo not drawn) | 1.96 | 0.075 | 1.7 | 1.63
COc1cc2c(Oc3ccc(NC(=O)Cc4ncc(-c5ccc(F)cc5)o4)cc3F)ccnc2cc1OCCCN1CCC(C)CC1 | 0.109 | 0.105 | 0.54 | –
CCC(C(=O)Nc1ccc(Oc2ccnc3cc(OCCCN4CCCCC4)c(OC)cc23)c(F)c1)c1nnc(-c2ccc(F)cc2)o1 (stereo not drawn) | 1.08 | 0.092 | 1.47 | 0.41
COc1cc2nccc(Oc3ccc(NC(=O)c4nc(-c5ccc(F)cc5)no4)cc3)c2cc1OC | 39.7 | 10.3 | > 100 | –
COc1cc2c(Oc3ccc(NC(=O)Cc4nnc(-c5ccc(F)cc5)o4)cc3F)ccnc2cc1OCCCN1CCC(C)CC1 | 0.238 | 0.082 | 0.28 | –
COc1cc2c(Oc3ccc(NC(=O)C(C)c4nnc(-c5ccc(F)cc5)o4)cc3F)ccnc2cc1OCCCN1CCCC1 (stereo not drawn) | 1.27 | 0.076 | 1.08 | 2.7
CCC(C(=O)Nc1ccc(Oc2ccnc3cc(OCCCN4CCCC4)c(OC)cc23)c(F)c1)c1nnc(-c2ccc(F)cc2)o1 (stereo not drawn) | 0.57 | 0.078 | 1.42 | 1.04
COc1ccc(-c2nnc(CC(=O)Nc3ccc(Oc4ccnc5cc(OCCCN6CCC(C)CC6)c(OC)cc45)c(F)c3)o2)cc1 | 7.52 | 1.56 | 0.41 | –
COc1cc2c(Oc3ccc(NC(=O)Cc4nnc(-c5ccc(F)cc5)o4)cc3F)ccnc2cc1OCCCN1CCCC1 | 2.37 | 0.091 | 0.21 | –
COc1cc2c(Oc3ccc(NC(=O)C4(c5nnc(-c6ccc(F)cc6)o5)CC4)cc3F)ccnc2cc1OCCCN1CCC(C)CC1 | 0.442 | 0.12 | 2.18 | 0.74
COc1cc2c(Oc3ccc(NC(=O)Cc4nnc(-c5ccccc5)o4)cc3F)ccnc2cc1OCCCN1CCC(C)CC1 | 7.81 | 0.92 | 4.73 | –
COc1cc2nccc(Oc3ccc(NC(=O)c4ncc(-c5ccc(F)cc5)o4)cc3)c2cc1OC | > 100 | 5.59 | 21.9 | –
COc1cc2c(Oc3ccc(NC(=O)Cc4nc(-c5ccc(F)cc5)no4)cc3F)ccnc2cc1OCCCN1CCC(C)CC1 | 1.16 | 0.106 | 0.33 | –
